Experimental data from patent US20110124614A1, “Methods And Compositions For The Treatment of Autoimmune Disorders” (priority 2008, published 2011).
Entries after “also recorded” stand apart in the source; their conditions may differ. Marks after values point to notes of the source that are not given here.

How the values were obtained:
Assay type in all cases: in vivo, mouse
EAE in wild-type B6 mice [1] = assay: EAE clinical scoring, G-1 vs E2 pellets at different doses, wild-type B6 mice (Example III); conditions: for CDI / Daily / Mortality / Onset / Peak / Incidence: 34 days
EAE in wild-type B6 mice [2] = assay: EAE clinical scoring, daily s.c. injection of G-1 or E2, wild-type B6 mice
EAE in PD-1KO mice = assay: EAE clinical scoring, G-1 or E2 pellets, PD-1KO mice (Example IX)
[3] = tested on: CNS infiltration, demyelination and axonal damage in spinal cord of WT EAE mice; assay: Spinal cord histology (H&E, LFB-PAS, SMI312, SMI32), WT EAE mice
Description: Spinal cords were dissected out for histology. Intact spinal columns were removed and dissected after fixation in 4% paraformaldehyde, dehydrated and embedding in paraffin. To examine neuroinflammation, the sections were stained with hematoxylin and eosin (H&E). To examine demyelination, the sections were stained with Luxon fast blue plus periodic acid Schiff (LFB-PAS). The mice from the clinical experiment shown in FIG. 2A were euthanized at the end of the experiment and spinal cords were dissected out for histology. Intact spinal cords were removed and dissected after fixation in 4% paraformaldehyde, dehydrated and embedding in paraffin. To examine neuroinflammation, the sections were stained with hematoxylin and eosin (H&E). To examine demyelination, the sections were stained with Luxon fast blue plus periodic acid Schiff (LFB-PAS). To visualize axonal damage, spinal cords were fixed in 4% paraformaldehyde (maass/volume in PBS, pH 7.4) at 4° C. for at least 48 h. The spinal cords were dissected out from the columns, cut into sections 1-2 mm in length from the sampled thoracic or […] cords, dehydrated and embedded in paraffin blocks. Then, 10 μm thick sections were cut from paraffin blocks and mounted onto pre-cleaned microscope slides. The sections were dewaxed and rehydrated sequentially by xylene (2 min), gradient ethanol (100%, 95%, 85%, 2 min each) and PBS (5 min) and then cooked (120° C.) in antigen unmasking agent Trilogy® (Cell Marque, Hot Springs, Ark.) for 10 min in a pressure steamer. […] The slides were counterstained with hematoxylin for 30-60 s to visualize nuclei, washed with tap water, dehydrated, and mounted with Cytoseal™ XYL mounting medium (Richard-Allan Scientific, Kalamazoo, Mich.). The sections were analyzed by light microscopy after staining and recorded with a digital camera.

[4] = tested on: splenocytes and lymph node cells of WT EAE mice; assay: Ex vivo T cell proliferation to mMOG-35-55, WT mice; conditions: G-1 and E2 implanted WT mice, FIG. 2C
Protocol: (§1) Splenocytes and lymph node cells were harvested ex-vivo from G-1 and E2 implanted mice and cultured in a 96-well flat bottom tissue culture plate at 4×10^5 cells/well in stimulation medium in the presence of APC, irradiated (2500 rad) syngenic thymocytes at a ration of 1:10 (T:APCs) wither with or without mMog 35-55 peptide at varying concentrations. The cells were incubated for 3 days at 37° C. in 7% CO2 and pulsed with 0.5 μCi of [^3H] thymidine (Perkin-Elmer, Boston, Mass.) for the final 18 h of incubation. The cells were harvested onto glass fiber filters, and incorporated radioactivity was measured by a liquid scintillation counter. The cpm values (mean±SD) were calculated from triplicate wells. Stimulation index (SI) was calculated by dividing the experimental cpm by the control cpm.

[5] = tested on: T cells of GPR30KO EAE mice; assay: Ex vivo T cell proliferation to mMOG-35-55, GPR30KO mice; conditions: Example IV
Protocol: as §1

[6] = tested on: PD-1 expression in CD4^+FoxP3^+ T cells; assay: PD-1 expression in CD4+FoxP3+ Treg cells by flow cytometry, WT mice (Example VI)
Protocol: Splenocytes or lymph node cells were harvested from placebo-, E2- or G-1 treated mice after EAE induction as shown in FIG. 2A and stained for CD4, FoxP3 and PD-1. The expression levels of Pd-1 were analyzed by gating on CD4^+FoxP3^+ cells from placebo-, E2, or G-1 treated WT mice. For membrane staining, 1 million cells were stained at 4° C. in the dark with appropriate Ab dilutions in staining buffer (PBS containing 0.5% BSA and 0.02% sodium azide), Intracellular staining for FoxP3 was performed following the protocol recommended by eBioscience. Briefly, 4 million cells were surface stained following standard procedures. After washing, the cells were fixed overnight and washed twice with 0.5 ml of permeabilization buffer. The cells were co-stained for 15 min with FcBlock (Becton Dickinson, Franklin Lake., NJ) and IgG PerCp (eBioscience, San Diego, Calif.) followed 30 min later with fluorescent-labeled antibodies to FoxP3 (eBioscience, San Diego, Calif.) or isotype control. The cells were then washed twice with 2 ml of permeabilization buffer and once with 1 ml of staining buffer, and re-suspended in staining buffer. Flow cytometry data were collected on LSRII and FACSCalibur flow cytometers (BD Bioscience, Franklin Lakes, N.J.), and analyzed using FlowJo software (Tree Star, Ashland, Oreg.). Data represent 50,000-100,000 events unless otherwise noted. […] The histogram overlay compares the MFI of PD-1 in CD4^+FoxP3^+ T cells from different treatment groups. The bar charts show the average percentages of PD-1^+ CD4^+FoxP3^+ T cells and the average MFI of PD-1 in CD4^+FoxP3^+ T cells from all mice in each grip[/*P<0.05 or **P<0.01 compared to placebo control.

[7] = tested on: PD-L1 and PD-L2 expression; assay: PD-L1 and PD-L2 expression on APCs and T cells by flow cytometry (Example VIII); conditions: treated WT EAE mice, FIG. 5C
[8] = G-1 injection, 20 μg/mouse/day s.c., 20 days
[9] = PD-1KO, 1.8 mg/40 day G-1 pellet, 20 days

CC(=O)c1ccc2c(c1)C1C=CCC1C(c1cc3c(cc1Br)OCO3)N2 (stereo not drawn) [G-1]
CDI (EAE in wild-type B6 mice [1]; 0.01 mg G-1 pellet): 43.8 ± 39.9 | Daily (EAE in wild-type B6 mice [1]; 0.01 mg G-1 pellet): 1.8 ± 1.6 | Mortality (EAE in wild-type B6 mice [1]; 0.01 mg G-1 pellet): 0/6 | Onset (EAE in wild-type B6 mice [1]; 0.01 mg G-1 pellet): 13.6 ± 1.6 | Peak (EAE in wild-type B6 mice [1]; 0.01 mg G-1 pellet): 3.1 ± 1.7 | Incidence (EAE in wild-type B6 mice [1]; 0.01 mg/40 day release G-1 pellet): 5/6 | CDI (EAE in wild-type B6 mice [1]; 0.1 mg G-1 pellet): 18.8 ± 28.3 | Daily (EAE in wild-type B6 mice [1]; 0.1 mg G-1 pellet): 0.75 ± 1.3 | Mortality (EAE in wild-type B6 mice [1]; 0.1 mg G-1 pellet): 0/6 | Onset (EAE in wild-type B6 mice [1]; 0.1 mg G-1 pellet): 16.7 ± 2.3 | Peak (EAE in wild-type B6 mice [1]; 0.1 mg G-1 pellet): 1.5 ± 1.6 | Incidence (EAE in wild-type B6 mice [1]; 0.1 mg/40 day release G-1 pellet): 3/6 | CDI (EAE in wild-type B6 mice [1]; 1.8 mg G-1 pellet): 0** | Daily (EAE in wild-type B6 mice [1]; 1.8 mg G-1 pellet): 0** | Mortality (EAE in wild-type B6 mice [1]; 1.8 mg G-1 pellet): 0/7 | Peak (EAE in wild-type B6 mice [1]; 1.8 mg G-1 pellet): 0** | Incidence (EAE in wild-type B6 mice [1]; 1.8 mg/40 day release G-1 pellet one week before immunization): 0/7** | protection from clinical EAE (in words) (EAE in wild-type B6 mice [1]; 1.8 mg/40 day release G-1 pellets): completely protected | clinical EAE (in words), dose dependence (EAE in wild-type B6 mice [1]; G-1 pellets 1.8, 0.1 or 0.01 mg/40 day release): delayed and ameliorated EAE in a dose-dependent manner | protection from clinical EAE compared with E2 (EAE in wild-type B6 mice [1]; lower doses of G-1 pellets): less effective than E2 | protection against EAE (in words) (EAE in wild-type B6 mice [2]; G-1 20 μg/mouse/day s.c. injections): partially protective | CDI (EAE in wild-type B6 mice [2]; [8]): 19.7 ± 11.3 | Daily (EAE in wild-type B6 mice [2]; [8]): 2.7 ± 1.3 | Mortality (EAE in wild-type B6 mice [2]; [8]): 1/8 | Onset (EAE in wild-type B6 mice [2]; [8]): 13.7 ± 1.3 | Peak (EAE in wild-type B6 mice [2]; [8]): 3.7 ± 1.6 | Incidence (EAE in wild-type B6 mice [2]; G-1 injection, 20 μg/mouse/day s.c., euthanized 20 days after immunization): 6/8 | protection against clinical EAE (in words) (EAE in PD-1KO mice; G-1 1.8 mg/40 day pellet, PD-1KO mice): failed to protect | CDI (EAE in PD-1KO mice; [9]): 30.6 ± 9.1 | Daily (EAE in PD-1KO mice; [9]): 2.7 ± 0.8 | Mortality (EAE in PD-1KO mice; [9]): 1/5 | Onset (EAE in PD-1KO mice; [9]): 13.8 ± 1.3 | Peak (EAE in PD-1KO mice; [9]): 4.8 ± 0.6 | Incidence (EAE in PD-1KO mice; PD-1KO, 1.8 mg/40 day release G-1 pellet, euthanized after 20 days): 5/5 | immune cell infiltration and demyelination in the CNS (H&E, LFB-PAS) ([3]; WT mice of FIG. 2A experiment, FIG. 4 upper panels): markedly ameliorated; also recorded: reduced | axons in the spinal cords (SMI312 staining) ([3]; WT mice, FIG. 4 lower left panel): well preserved | axonal damage in spinal cord sections ([3]; WT mice, FIG. 4 lower panels): reduced the level of axonal damage | SMI32 staining in white matter of spinal cords (ongoing axonal damage) ([3]; WT mice, FIG. 4 lower right panel): much less SMI32 staining | ex vivo T cell proliferation responses to mMog-35-55 peptide [4]: neither G-1 nor E2 treatment significantly altered | T cell proliferation to mMog-35-55 [5]: Neither G-1 nor E2 affected | staining intensity of PD-1 in CD4^+FoxP3^+ cells ([6]; spleen of treated WT mice, FIG. 5B): strongly enhanced | boosting PD-1 expression in CD4^+FoxP3^+ cells, compared with E2 ([6]; treated WT mice): even more potent than E2 | conversion of CD4^+FoxP3^+PD-1^− cells to PD-1^+ cells ([6]; treated WT mice, FIG. 5B): converted a majority | PD-L1 expression on B cells and macrophages [7]: upregulated | expression of PD-L2 [7]: essentially no effect
